From US12202829B2, “Heterocyclic compound” (FIMECS, Inc., priority 2018, dated 2025) come the findings set out here.

Where a name gives a salt, the structure may show the parent alone.

The assay has as its target T1, human XIAP_BIR3 domain purified protein (Homo sapiens, UniProt P98170).
T1 construct: purchased R & D
In words: XIAP binding inhibitory activity, HTRF method with b-Smac ligand. Conditions: for IC50: second symbol of the cell, read-out: XIAP binding 50% inhibitory concentration (IC50 value); for inhibition at 3 µM: test compound 3 μM, first symbol of the cell, read-out: XIAP binding inhibition rate when the concentration of the test compound is 3 μM. The method, boiled down: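 HTRF competition: human XIAP BIR3 and C-terminally biotinylated Smac peptide AVPIAQK, each diluted to 90 nM before addition, in HEPES pH 7.5 buffer with NaCl, BSA, Triton X-100. Eu-cryptate anti-His/streptavidin-XL665 detection after ≥4 h at room temperature; inhibition % from 665/615 ratio versus no-compound control.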
(TR-FRET usually uses a lanthanide donor and a delayed reading to cut background.)

T1 sequence (P98170 252-356 limits assumed): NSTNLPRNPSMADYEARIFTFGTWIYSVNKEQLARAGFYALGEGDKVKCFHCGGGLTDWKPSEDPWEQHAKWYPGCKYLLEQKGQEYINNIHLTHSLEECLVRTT

On to `CN[C@@H](C)C(=O)N[C@H](C(=O)N1CCN(C(=O)c2cc3cc(F)c(F)cc3n2CCOC)CC1)C1CCCCC1` [Example 54, (S)—N—((S)-1-Cyclohexyl-2-(4-(5,6-difluoro-1-(2-methoxyethyl)-1H-indole-2-carbonyl)piperazin-1-yl)-2-oxoethyl)-2-(methylamino)propanamide], for which the IC50 lay within 3 to 30 µM.
As to `CN[C@@H](C)C(=O)N[C@H](C(=O)N1CCN(C(=O)c2cc3cc(F)c(F)cc3n2C)C[C@H]1C)C1CCCCC1` [Example 56, (S)—N—((S)-1-Cyclohexyl-2-((R)-4-(5,6-difluoro-1-methyl-1H-indole-2-carbonyl)-2-methylpiperazin-1-yl)-2-oxoethyl)-2-(methylamino)propanamide Trifluoroacetate], the IC50 lay within 3 to 30 µM.
On the same count and under the same terms, for `CN[C@@H](C)C(=O)N[C@H](C(=O)N1CCN(C(=O)c2cc3cc(F)c(OC)cc3n2C)C[C@H]1C)C1CCCCC1` [Example 57, (S)—N—[(S)-1-Cyclohexyl-2-[(R)-4-[(5-fluoro-6-methoxy-1-methyl-1H-indole-2carbonyl]-2-methylpiperazin-1-yl]-2-oxoethyl]-2-(methylamino)propanamide trifluoroacetate] the value was 0.3 to 3 µM.
Consider `CN[C@@H](C)C(=O)N[C@H](C(=O)N1CCN(C(=O)c2cc3cc(F)ccc3n2C)C[C@H]1C)C1CCCCC1` [Example 58, (S)—N—((S)-1-Cyclohexyl-2-((R)-4-(5-fluoro-1-methyl-1H-indole-2-carbonyl)-2-methylpiperazin-1-yl)-2-oxoethyl)-2-(methylamino)propanamide Trifluoroacetate], for which the IC50 lay in the range of 0.3 to 3 µM.
Same read-out and setting: under `CN[C@@H](C)C(=O)N[C@H](C(=O)N1C[C@H]2CC[C@@H]1CN2C(=O)c1cc2cc(F)c(F)cc2n1C)C1CCCCC1` [Example 59, (2S)-N-((1S)-1-cyclohexyl-2-(5-((5,6-difluoro-1-methyl-1H-indol-2-yl)carbonyl)-2,5-diazabicyclo[2.2.2]octan-2-yl)-2-oxoethyl)-2-(methylamino)propanamide] stands 3 to 30 µM.
Still for that read-out and setting: for `CN[C@@H](C)C(=O)N[C@H](C(=O)N1C2CC1CN(C(=O)c1cc3cc(F)c(F)cc3n1C)C2)C1CCCCC1` [Example 60, (2S)-N-((1S)-1-cyclohexyl-2-(3-((5,6-difluoro-1-methyl-1H-indol-2-yl)carbonyl)-3,6-diazabicyclo[3.1.1]heptan-6-yl)-2-oxoethyl)-2 (methylamino)propanamide] the value was 3 to 30 µM.
For `CN[C@@H](C)C(=O)N[C@H](C(=O)N1CCN(C(=O)c2c(C(=O)NCCOCCOCCN=[N+]=[N-])c3ccc(OC)cc3n2C)CC1)C1CCCCC1` [Example 61, N-(2-(2-(2-Azidoethoxy)ethoxy)ethyl)-2-(4-((S)-2-cyclohexyl-2-((S)-2-(methylamino)propanamido)acetyl)piperazine-1-carbonyl)-6-methoxy-1-methyl-1H-indole-3-carboxamide], the inhibition at 3 µM was above 75%.
Regarding `CN[C@@H](C)C(=O)N[C@H](C(=O)N1CCN(C(=O)c2c(OCCOCCOCCOCCO)c3cc(F)c(F)cc3n2C)CC1)C1CCCCC1` [Example 63, (S)-N-((S)-1-cyclohexyl-2-(4-(5,6-difluoro-3-(2-(2-(2-(2-hydroxyethoxy)ethoxy)ethoxy)ethoxy)-1-methyl-1H-indole-2-carbonyl)piperazin-1-yl)-2-oxoethyl)-2-(methylamino)propanamide], the inhibition at 3 µM is 25 to 50%.
On to `C[C@@H]1CN(CC(=O)N2CCN(C(=O)c3cc4cc(F)c(F)cc4n3C)C[C@H]2C)[C@@H](COCCOCCOCCO)CN1` [Example 64, 1-((R)-4-(5,6-Difluoro-1-methyl-1H-indole-2-carbonyl)-2-methylpiperazin-1-yl)-2-((2R,5R)-2-(2-(2-(2-hydroxyethoxy)ethoxy)ethoxymethyl)-5-methylpiperazin-1-yl)ethan-1-one], for which the IC50 was 3 to 30 µM.
For the compound `C[C@@H]1CN(CC(=O)N2CCN(C(=O)c3cc4cc(F)c(F)cc4n3C)C[C@H]2C)[C@@H](COCCOCCOCCOCCO)CN1` [Example 65, 1-((R)-4-(5,6-Difluoro-1-methyl-1H-indole-2-carbonyl)-2-methylpiperazin-1-yl)-2-((2R,5R)-2-(13-hydroxy-2,5,8,11-tetraoxatridecyl)-5-methylpiperazin-1-yl)ethan-1-one], the IC50 fell in the range of 3 to 30 µM.
On to `CN[C@@H](C)C(=O)N[C@H](C(=O)N1CCN(C(=O)c2cc3c(OCCOCCOCCOCc4ccccc4)c(F)c(F)cc3n2C)CC1)C1CCCCC1` [Example 66, (S)—N—((S)-2-(4-(4-(2-(2-(2-(Benzyloxy)ethoxy)ethoxy)ethoxy)-5,6-difluoro-1-methyl-1H-indole-2-carbonyl)piperazin-1-yl)-1-cyclohexyl-2-oxoethyl)-2-(methylamino)propanamide], for which the IC50 lay in the range of 3 to 30 µM.
Consider `CN[C@@H](C)C(=O)N[C@H](C(=O)N1CCN(C(=O)c2cc3c(OCCOCCOCCO)c(F)c(F)cc3n2C)CC1)C1CCCCC1` [Example 67, (S)—N—((S)-1-Cyclohexyl-2-(4-(5,6-difluoro-4-(2-(2-(2-hydroxyethoxy)ethoxy)ethoxy)-1-methyl-1H-indole-2-carbonyl)piperazin-1-yl)-2-oxoethyl)-2-(methylamino)propanamide], for which the IC50 was in the range of 0.3 to 3 µM.
With `CN[C@@H](C)C(=O)N[C@H](C(=O)N1CCN(C(=O)c2cc3c(OCCOCCOCCOCCO)c(F)c(F)cc3n2C)CC1)C1CCCCC1` [Example 68, (S)—N—((S)-1-Cyclohexyl-2-(4-(5,6-difluoro-4-(2-(2-(2-(2-hydroxyethoxy)ethoxy)ethoxy)ethoxy)-1-methyl-1H-indole-2-carbonyl)piperazin-1-yl)-2-oxoethyl)-2-(methylamino)propanamide], the IC50 lay in the range of 0.3 to 3 µM.
On the same count and under the same terms, under `CN[C@@H](C)C(=O)N[C@H](C(=O)N1CCN(C(=O)c2ccc3c(c2)cc(C)n3CCOCCOCCO)CC1)C1CCCCC1` [Example 69, (S)—N—((S)-1-Cyclohexyl-2-(4-(1-(2-(2-(2-hydroxyethoxy)ethoxy)ethyl)-2-methyl-1H-indole-5-carbonyl)piperazine-1-yl)-2-oxoethyl)-2-(methylamino)propanamide] stands below 0.3 µM; under `CN[C@@H](C)C(=O)N[C@H](C(=O)N1CCN(C(=O)c2ccc3c(c2)cc(C)n3CCOCCOCCOCCO)CC1)C1CCCCC1` [Example 70, (S)—N—((S)-1-Cyclohexyl-2-(4-(1-(2-(2-(2-(2-hydroxyethoxy)ethoxy)ethoxy)ethyl)-2-methyl-1H-indole-5-carbonyl)piperazin-1-yl)-2-oxoethyl)-2-(methylamino)propanamide], 0.3 to 3 µM.
With `CN[C@@H](C)C(=O)N[C@H](C(=O)N1CCN(C(=O)c2ccc3c(c2)c(F)c(C)n3CCOCCOCCO)CC1)C1CCCCC1` [Example 71, (S)—N—((S)-1-Cyclohexyl-2-(4-(3-fluoro-1-(2-(2-(2-hydroxyethoxy)ethoxy)ethyl)-2-methyl-1H-indole-5-carbonyl)piperazin-1-yl)-2-oxoethyl)-2-(methylamino)propanamide], the inhibition at 3 µM was above 75%.
